Test results reported in ChEMBL document CHEMBL2034863, “Application of MM-GB/SA and WaterMap to SRC Kinase Inhibitor Potency Prediction” (ACS Med Chem Lett, 2012).

Biological target: Proto-oncogene tyrosine-protein kinase Src (Homo sapiens, UniProt P12931)
Sequence (P12931 2-536 limits assumed): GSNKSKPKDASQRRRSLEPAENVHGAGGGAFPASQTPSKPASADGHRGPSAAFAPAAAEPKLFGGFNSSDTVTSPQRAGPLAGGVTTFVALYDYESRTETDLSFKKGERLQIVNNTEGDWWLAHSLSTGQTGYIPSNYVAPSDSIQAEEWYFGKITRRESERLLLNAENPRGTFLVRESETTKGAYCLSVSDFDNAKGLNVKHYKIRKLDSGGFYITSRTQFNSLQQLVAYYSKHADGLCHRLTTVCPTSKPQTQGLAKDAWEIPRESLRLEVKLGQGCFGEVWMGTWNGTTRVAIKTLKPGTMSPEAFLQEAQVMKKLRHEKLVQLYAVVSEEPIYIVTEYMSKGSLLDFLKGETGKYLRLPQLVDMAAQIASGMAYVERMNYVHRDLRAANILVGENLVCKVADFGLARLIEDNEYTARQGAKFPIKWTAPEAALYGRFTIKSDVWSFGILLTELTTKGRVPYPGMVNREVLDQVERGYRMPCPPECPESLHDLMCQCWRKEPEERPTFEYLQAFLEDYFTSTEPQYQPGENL

SMILES | IC50
CCn1cnc2c(Nc3ccc(P(C)(C)=O)cc3)nc(NC3CCOCC3)nc21 | 41.2 nM
C=Cn1cnc2c(Nc3ccc(P(C)(C)=O)cc3)ncnc21 | 1000 nM
CCn1cnc2c(Nc3ccc(C(C)C)cc3)nc(C(C)C)nc21 | 385 nM
CCCCP(=O)(CCCC)c1ccc(Nc2nc(C(C)C)nc3c2ncn3CC)cc1 | 8.8 nM
Cc1cccc(C)c1/C=C/n1cnc2c(Nc3ccc(P(C)(C)=O)cc3)nc(-c3ccccn3)nc21 | 43.1 nM
C=Cn1cnc2c(Nc3ccc(P(C)(C)=O)cc3)nc(N3CCC(CO)CC3)nc21 | 155 nM
CCCP(=O)(CCC)c1ccc(Nc2nc(C(C)C)nc3c2ncn3CC)cc1 | 3.9 nM
CCn1cnc2c(Nc3ccc(P(C)(C)=O)cc3)nc(C(C)C)nc21 | 25.1 nM
C=Cn1cnc2c(Nc3ccc(P(C)(C)=O)cc3)nc(OC3CCOC3)nc21 (centres undefined) | 188 nM
